Data: the METLIN SMRT retention time set (Domingo-Almenara et al. 2019)

Assay: gradient 5% acetonitrile 3 min, to 50% in 2 min, to 85% in 15 min, held 3 min, 100 µL/min
Settings: column: Zorbax Extend-C18 2.1 x 50 mm; eluents: water / acetonitrile, 0.1% formic acid
How it was run: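 In both positive and negative ionization mode, a quadrupole time-of-flight mass spectrometer coupled to HPLC analyzed pure standards run in mixtures of ~100 molecules. The Zorbax Extend-C18 column (2.1 × 50 mm, 1.8 μm) was operated at 100 μL/min with water and acetonitrile, each containing 0.1% formic acid. The dead volume was 40 μL and the dwell volume 900 μL. Retention time came from adduct peaks that were computationally picked and individually inspected by hand.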

| Structure (SMILES) | RP-LC retention time |
| --- | --- |
| CC1=C2C(=O)[C@H]3[C@@H](CC=C4C[C@@H](O)CC[C@@]43C)[C@@H]2CC[C@]12O[C@@H]1C[C@H](C)CN[C@H]1C2C (some centres not stated) | 699 s |
| CCOc1ccccc1N1CCN(C(=O)CN2CCN(Cc3ccc(F)cc3)C2=O)CC1 | 833 s |
| Cc1ccc(CN(C(=O)COc2ccc(Cl)c(C)c2)C2CCS(=O)(=O)C2)o1 (configuration not stated) | 979 s |
| O=S(=O)(c1ccc(-c2noc(-c3cccc(F)c3)n2)cc1)N1CCCCC1 | 1280 s |
| Cc1ccc2c(Nc3cccc(Br)c3)c(C(=O)N3CCOCC3)cnc2n1 | 611 s |
| Cc1cc2[nH]c(C(=O)Nc3cccc(Cl)c3F)c(CN3CCOCC3)c2s1 | 768 s |
| COc1ccc(-c2cn3c(CC(=O)N4CCN(Cc5ccccc5)CC4)csc3n2)cc1OC | 596 s |
| Cc1cc(NC(=O)C2CCN(S(C)(=O)=O)c3ccccc3O2)ccc1Br (configuration not stated) | 1040 s |
| Cc1c(C(=O)Nc2ccc(CC(=O)NC3CC3)cc2)cnn1-c1ccccc1 | 675 s |
| O=C(NCc1ccc(Cl)cc1)c1ccc2c(c1)nc1n2CCN(Cc2ccccn2)C1=O | 675 s |
| Cc1ccc(Cn2cc(-c3ccncc3)cc2C(=O)N2CCN(C3CCCCC3)CC2)cc1 | 602 s |
| CCOC(=O)c1c(C)[nH]c(C(=O)N2CCC(CC(=O)NC3CC3)CC2)c1C | 654 s |
| CC(OC(=O)Nc1cccc(Cl)c1)C(=O)O (configuration not stated) | 809 s |
| COc1ccc(CN2CCN(C(c3ccc(F)cc3)c3ccc(F)cc3)CC2)c(OC)c1OC | 857 s |
| Cc1ccc(-c2nocc2CCC(=O)NCc2ccc(F)cc2)cc1 | 919 s |
| Cc1ccc([N+](=O)[O-])cc1NC(=O)Nc1ccc(S(N)(=O)=O)cc1 | 786 s |
| O=C(NC1CCN(c2cc(-c3cccs3)[nH]n2)C1)c1ccccc1Br (configuration not stated) | 705 s |
| CC(C)n1nnc2cc(C(=O)N(C)C)ccc21 | 648 s |
| CCc1ccc(CNC(=O)CN2C(=O)NC3(CCCCC3)C2=O)cc1 | 792 s |
| Cc1cccc(-c2nc(-c3ccc4c(c3)oc(=O)n4C)no2)c1 | 1130 s |
| Fc1cccc(-c2noc(-c3nc(-c4ccc5c(c4)OCO5)no3)n2)c1 | 1220 s |
| Cc1cccc(CN2C(=O)N(c3cccc(F)c3)c3ncccc3S2(=O)=O)c1 | 1050 s |

| Structure (SMILES) | RP-LC retention time |
| --- | --- |
| O=S(=O)(Nc1cccc(-c2nc(-c3cccc(Br)c3)co2)c1)c1cccs1 | 1230 s |
| CCOC(=O)CNc1ncnc2nc[nH]c12 | 513 s |
| COc1ccc(-n2c(=O)c(C(=O)Nc3cccc(Cl)c3)c(O)c3cccnc32)cc1 | 1370 s |
| CC(C)CN1CCCC(COc2ccccc2C(=O)NC2CC2)C1 (configuration not stated) | 606 s |
| NC(=O)C1Cc2ccccc2N1C(=O)c1ccc([N+](=O)[O-])o1 (configuration not stated) | 633 s |
| O=C(Cn1nc(-c2nc(-c3ccc(Cl)cc3)no2)ccc1=O)N1CCCC1 | 848 s |
| O=[N+]([O-])c1ccc2c(c1)CN(S(=O)(=O)c1cccs1)CC2 | 878 s |
| CCOc1cccc(CNc2nccc(-n3nc(C)cc3C)n2)c1 | 858 s |
| O=C(Cn1cnc2nc(N3CCC(C(=O)NC4CC4)CC3)sc2c1=O)NCc1ccccc1 | 637 s |
| CCc1noc([C@@H]2CC(F)(F)CN2C(=O)c2ccco2)n1 | 755 s |
| COc1ccccc1C(=O)Nc1c(-c2ccccc2)nc2ccccn12 | 597 s |
| Cn1cc2c3c(cccc31)CN(C(=O)c1ccc(F)c(Cl)c1)CC2 | 1070 s |
| Cc1ccc2ncn(C3CCN(C(=O)Nc4ccccc4C)CC3)c(=O)c2c1 | 754 s |
| COC(=O)c1cc2c(=O)n(-c3cc(Cl)cc(Cl)c3)ccc2nc1C | 1010 s |
| COCc1cc(=O)n(CC(=O)Nc2ccc(C(C)C)cc2)c(N2CCOCC2)n1 | 960 s |
| CCCn1cc(C(=O)Nc2ccc3c(c2)OCO3)c(=O)c2ccc(C)nc21 | 1100 s |
| Cc1ccc(C)c(-c2coc(-c3ccc(NC(=O)NCCc4ccccc4)cc3)n2)c1 | 1240 s |
| O=C(CN1C(=O)CCCc2cc(S(=O)(=O)N3CCCCCC3)ccc21)Nc1ccc(F)cc1F | 962 s |
| CCC(C)NC(=O)N1CCC2(CC1)Nc1cc(F)ccc1-n1cccc12 (configuration not stated) | 954 s |
| c1ccc2c(CCNc3ccc(Nc4ccncc4)cc3)c[nH]c2c1 | 1110 s |
| Cc1cccc(NC(=O)Cn2c(=O)c3cc(C4CC4)nn3c3ncccc32)c1 | 789 s |
| O=C(C1CCN(c2cnc3nccnc3c2)CC1)N1CCN(c2cccc(Cl)c2)CC1 | 833 s |

| Structure (SMILES) | RP-LC retention time |
| --- | --- |
| O=C(c1ccc2c(c1)OCO2)N1CCN(c2nnc3ccccn23)CC1 | 616 s |
| O=S(=O)(c1cc(-c2nnc(C3CCC3)o2)co1)N1CCN(c2ccccn2)CC1 | 671 s |
| O=C(Cn1cccc(-c2nc(-c3ccc(F)cc3)no2)c1=O)Nc1ccc2c(c1)OCO2 | 850 s |
| CCOc1ccc(C(=O)NCCCN2CCN(c3ccccc3)CC2)cc1 | 586 s |
| O=C1CCc2cc(S(=O)(=O)Nc3ccc(F)c(Cl)c3)cc3c2N1CCC3 | 812 s |
| COc1ccc(OC)c(NC(=O)C2(C)Oc3cccnc3NC2=O)c1 (configuration not stated) | 746 s |
| COC(=O)c1cc(S(=O)(=O)N2CCCC2C(=O)Nc2ccc(C#N)cc2)cn1C (configuration not stated) | 841 s |
| Cc1ccc(NC(=O)C2CCCN(c3ncnc4c3nc3n4CCCCC3)C2)cc1Cl (configuration not stated) | 958 s |
| CCC(O)c1nc2ccccc2n1CC(=O)N1CCOCC1 (configuration not stated) | 566 s |
| O=C(CCCCCN1CCN(c2ccccc2-c2ccccc2)CC1)NC1CCCc2ccccc21 (configuration not stated) | 926 s |
| CCn1cc(C2=CCN(C(=O)Nc3ccc(OC)c(OC)c3)CC2)c2cccnc21 | 759 s |
| CCn1c(=O)c(NCCc2ccc(OC)c(OC)c2)nc2ccncc21 | 618 s |
| CCc1nnc2nc(N3CCN(C(=O)COc4ccc(Cl)cc4)CC3)cc(C)n12 | 648 s |
| NC(=O)Cc1csc(NC(=O)c2csc(Nc3ccc(OC(F)F)cc3)n2)n1 | 688 s |
| COc1ccc(OC)c2c1cc1n2CC(C)(C(=O)NC2CCCCCCC2)N(CCN(C)C)C1=O (configuration not stated) | 760 s |
| COCCC1CCN(C(=O)c2cc(-c3ccccc3)n[nH]2)CC1 | 758 s |
| COc1ccc(OC)c(CN2C[C@@H]3C(=O)N(C)C(=O)[C@@H]3C2)c1 | 574 s |
| COC(=O)C1C(=O)C2=C(CC1C)Nc1ccccc1NC2c1ccc(Cl)cc1 (configuration not stated) | 852 s |
| CCc1ccc(C(C)NC(=O)c2nnc(-c3ccc(S(=O)(=O)N(C)C)cc3)o2)cc1 (configuration not stated) | 1010 s |
| Cc1ccc(NC(=O)C2(C)Oc3cccnc3N(C)C2=O)cc1 (configuration not stated) | 845 s |
| COc1ccc(CC(=O)NCC(c2ccsc2)N2CCc3ccccc3C2)cc1OC (configuration not stated) | 573 s |
| CCOc1ccc(NC(=O)C2CCN(S(C)(=O)=O)c3cc(Cl)ccc3O2)cc1 (configuration not stated) | 877 s |

| Structure (SMILES) | RP-LC retention time |
| --- | --- |
| COc1ccc(NC(=O)c2c(F)cccc2F)c([N+](=O)[O-])c1 | 831 s |
| O=C(c1ccc(C(F)(F)F)cc1)N1CCN(c2nc(CN3CCCCC3)cs2)CC1 | 684 s |
| CCCNC(=O)C1CCCN(c2ccc(SCC(=O)Nc3ccc(S(C)(=O)=O)cc3)nn2)C1 (configuration not stated) | 614 s |
| CC(=O)c1ccc(N2CCN(S(=O)(=O)CCCOc3ccc(F)cc3)CC2)cc1 | 753 s |
| COc1cc([C@@H]2c3cc4c(cc3[C@H](O)[C@@H](CO)[C@@H]2C(=O)N2CCN(C(C)C)CC2)OCO4)cc(OC)c1OC | 608 s |
| Cc1cccc(NC(=O)Cn2c(C)nc(C)c(C)c2=O)c1C | 641 s |
| O=C1C(c2cccnc2)N(c2ccc3c(c2)OCCO3)C(=O)CN1c1ccccc1 (configuration not stated) | 644 s |
| Cc1nc2ccn(Cc3cccnc3)c(=O)c2cc1C(=O)NCCC(C)C | 605 s |
| Cc1ccc(CNC(=O)Cn2cnc3nc(N4CCCC(C(=O)NC5CC5)C4)sc3c2=O)cc1 (configuration not stated) | 743 s |
| CC(=O)N(Cc1nn(C)c2c1CN(S(=O)(=O)c1ccc(F)cc1F)CC2)c1ccccc1 | 808 s |
| CCCCCCCCOC(=O)/C=C/c1ccc(O)c(O)c1 | 630 s |
| O=C1CN(Cc2ccccc2)C(=O)C(Cc2ccccc2)N1 (configuration not stated) | 656 s |
| Cc1cc(C)n2nc(SCC(=O)NCc3cccs3)nc2n1 | 647 s |
| Cc1ccc(-c2nc3nc(C)cc(C)n3c2Nc2ccc3c(c2)OCCO3)cc1 | 704 s |
| CCOC(=O)c1cnc2c(-c3ccc(Cl)cc3)c(COC)nn2c1N | 1150 s |
| CCn1cc(-c2nc(C)c(C(=O)NCc3ccc4c(c3)OCO4)s2)c2cccnc21 | 925 s |
| CCOC(=O)c1cc(S(=O)(=O)N2CCCC2C(=O)NCc2cccnc2)cn1C (configuration not stated) | 598 s |
| CCOc1cccc(-c2noc(Cn3nc(-c4ccc(F)cc4)ccc3=O)n2)c1 | 1060 s |
| O=C(Nc1ccc2ncnc(N3CCCC3)c2c1)C1CCC1 | 628 s |
| Cc1cc2nc(C(F)(F)F)c(=O)n(C(C)C(=O)NCCCOC(C)C)c2cc1C (configuration not stated) | 1140 s |
| COc1ccc2[nH]c(=O)c(CCC(=O)NCCN(C)C3CCCCC3)cc2c1 | 598 s |
